US20240368121A1, “ESTROGEN RECEPTOR DEGRADERS, PHARMACEUTICAL COMPOSITIONS THEREOF, AND THEIR THERAPEUTIC APPLICATIONS” (BioTheryX, Inc., priority 2021, published 2024)

How the values were obtained:
Type in all cases: cell-based
[1] = tested on: MCF7 cells; experiment: Cell viability assay ([…]-GLO, 6-day treatment); conditions: Homo sapiens, MCF7, 144 h; MCF-7 cells, 6 days, CTG; read-out: Inhibition of Cancerous Cells IC50 MCF-7
Outline: (§1)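 MCF7 (MEM) and T47D (RPMI with insulin), both with 10% FBS, at 1,000 cells/well, treated with a 10-point compound dose series for 6 days, with medium and compound refreshed once. Viability read by CellTiter-Glo luminescence.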

[2] = tested on: T47D cells; experiment: Cell viability assay ([…]-GLO, 6-day treatment); conditions: Homo sapiens, 144 h, 6 days, CTG, read-out: Inhibition of Cancerous Cells IC50 T47D
Outline: as §1

[3] = target: T1, ERα (Homo sapiens, UniProt P03372); experiment: Protein degradation assay: ERα in MCF-7 cells via western blot; conditions: 6 h; for ERα Protein Degradation 1 nM: 1 nM compound; for ERα Protein Degradation 10 nM: 10 nM compound; for ERα Protein Degradation 100 nM: 100 nM compound
T1 construct: degrading an ERα in MCF-7 cells via a western blot; endogenous in cells; host or cells: MCF-7
T1 sequence (P03372 1-595): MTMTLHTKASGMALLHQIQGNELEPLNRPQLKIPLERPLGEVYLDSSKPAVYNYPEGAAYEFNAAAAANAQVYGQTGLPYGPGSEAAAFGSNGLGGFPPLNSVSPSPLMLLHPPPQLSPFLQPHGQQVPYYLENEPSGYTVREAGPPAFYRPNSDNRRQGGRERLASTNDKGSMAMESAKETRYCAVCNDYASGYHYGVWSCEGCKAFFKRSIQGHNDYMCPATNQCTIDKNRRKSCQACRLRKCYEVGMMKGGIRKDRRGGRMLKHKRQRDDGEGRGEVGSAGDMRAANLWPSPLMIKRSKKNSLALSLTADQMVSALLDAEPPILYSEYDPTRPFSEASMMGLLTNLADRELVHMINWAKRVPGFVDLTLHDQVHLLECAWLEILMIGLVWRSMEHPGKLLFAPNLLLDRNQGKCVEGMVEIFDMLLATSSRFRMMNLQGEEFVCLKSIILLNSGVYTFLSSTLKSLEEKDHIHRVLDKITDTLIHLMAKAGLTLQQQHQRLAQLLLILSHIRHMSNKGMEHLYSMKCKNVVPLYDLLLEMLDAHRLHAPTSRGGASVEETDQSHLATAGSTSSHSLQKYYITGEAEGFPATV
Outline: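 MCF-7 cells in MEM/10% FBS with insulin, seeded 300,000/well, treated 6 h at set concentrations (e.g., 1 nM–1 μM). Whole-cell lysates immunoblotted for ERα with GAPDH loading control, chemiluminescent detection; percentage degradation reported in binned categories (≥50%, 25–50%, 10–25%, <10%).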

IC50 [1] | IC50 [2] | Structure (SMILES) | ERα Protein Degradation 1 nM [3] | ERα Protein Degradation 10 nM [3] | ERα Protein Degradation 100 nM [3]
1.2 nM | 0.48 nM | O=C1CCC(c2cccc(OCC(=O)N3CCN(CCCCOc4ccc([C@@H]5c6ccc(O)cc6CC[C@@H]5c5ccccc5)cc4)CC3)c2)C(=O)N1 (stereo partly drawn) [Compound B5, 3-(3-(2-(4-(4-(4-((1R,2S)-6-hydroxy-2-phenyl-1,2,3,4-tetrahydronaphthalen-1-yl)phenoxy)butyl)piperazin-1-yl)-2-oxoethoxy)phenyl)piperidine-2,6-dione] | D (a percentage degradation value of less than 10%) | D (a percentage degradation value of less than 10%) | D (a percentage degradation value of less than 10%)
1.7 nM | 0.49 nM | O=C1CCN(c2cccc(OCC(=O)N3CCN(CCCCOc4ccc([C@@H]5c6ccc(O)cc6CC[C@@H]5c5ccccc5)cc4)CC3)c2)C(=O)N1 [Compound B9, 1-(3-(2-(4-(4-(4-((1R,2S)-6-hydroxy-2-phenyl-1,2,3,4-tetrahydronaphthalen-1-yl)phenoxy)butyl)piperazin-1-yl)-2-oxoethoxy)phenyl)dihydropyrimidine-2,4(1H,3H)-dione] | D (a percentage degradation value of less than 10%) | D (a percentage degradation value of less than 10%) | D (a percentage degradation value of less than 10%)
5.6 nM | 3.2 nM | Cc1c(-c2ccc(O)cc2)n(Cc2ccc(OCCCCN3CCN(C(=O)COc4ccc(N5CCC(=O)NC5=O)cc4)CC3)cc2)c2ccc(O)cc12 [Compound E27, 1-(4-(2-(4-(4-(4-((5-hydroxy-2-(4-hydroxyphenyl)-3-methyl-1H-indol-1-yl)-methyl)phenoxy)butyl)piperazin-1-yl)-2-oxoethoxy)phenyl)dihydropyrimidine-2,4(1H,3H)-dione] | D (a percentage degradation value of less than 10%) | D (a percentage degradation value of less than 10%) | D (a percentage degradation value of less than 10%)
5.7 nM | 0.93 nM | CN(C(=O)CN1CCN(CC2CCN(c3ccc([C@@H]4c5ccc(O)cc5CC[C@@H]4c4ccccc4)cc3)CC2)CC1)c1cccc(NC2CCC(=O)NC2=O)c1 (stereo partly drawn) [Compound B20, N-(3-((2,6-Dioxopiperidin-3-yl)amino)phenyl)-2-(4-((1-(4-((1R,2S)-6-hydroxy-2-phenyl-1,2,3,4-tetrahydronaphthalen-1-yl)phenyl)piperidin-4-yl)methyl)piperazin-1-yl)-N-methylacetamide] | B (a percentage degradation value of less than 50% and no less than 25%) | C (a percentage degradation value of less than 25% and no less than 10%) | D (a percentage degradation value of less than 10%)
2.5 nM | 0.96 nM | O=C1CCC(Nc2cccc(NC(=O)CN3CCN(CC4CCN(c5ccc([C@@H]6c7ccc(O)cc7CC[C@@H]6c6ccccc6)cc5)CC4)CC3)c2)C(=O)N1 (stereo partly drawn) [Compound B19, N-(3-((2,6-dioxopiperidin-3-yl)amino)phenyl)-2-(4-((1-(4-((1R,2S)-6-hydroxy-2-phenyl-1,2,3,4-tetrahydronaphthalen-1-yl)phenyl)piperidin-4-yl)methyl)piperazin-1-yl)-acetamide] | D (a percentage degradation value of less than 10%) | D (a percentage degradation value of less than 10%) | D (a percentage degradation value of less than 10%)
0.09 nM | 0.02 nM | Cc1c(-c2ccc(O)cc2)n(Cc2ccc(OCCCCNCc3ccc(OCc4scc5c4CN(C4CCC(=O)NC4=O)C5=O)cc3)cc2)c2ccc(O)cc12 (stereo not drawn) [Compound E5, 3-(1-((4-(((4-(4-((5-hydroxy-2-(4-hydroxyphenyl)-3-methyl-1H-indol-1-yl)-methyl)phenoxy)butyl)amino)methyl)phenoxy)methyl)-4-oxo-4H-thieno[3,4-c]pyrrol-5(6H)-yl)-piperidine-2,6-dione] | D (a percentage degradation value of less than 10%) | D (a percentage degradation value of less than 10%) | D (a percentage degradation value of less than 10%)

Further lines, the molecule ahead of its results:

Structure (SMILES) | IC50 [1] | IC50 [2] | ERα Protein Degradation 1 nM [3] | ERα Protein Degradation 10 nM [3] | ERα Protein Degradation 100 nM [3]
O=C1CCC(N2Cc3cc(C4CCN(CCCCCCOc5ccc([C@@H]6c7ccc(O)cc7CC[C@@H]6c6ccccc6)cc5)CC4)c(F)cc3C2=O)C(=O)N1 (stereo partly drawn) [Compound A5, 3-(6-Fluoro-5-(1-(6-(4-((1R,2S)-6-hydroxy-2-phenyl-1,2,3,4-tetrahydro-naphthalen-1-yl)phenoxy)hexyl)piperidin-4-yl)-1-oxoisoindolin-2-yl)piperidine-2,6-dione] | 0.37 nM | 0.22 nM | A (a percentage degradation value of no less than 50%) | A (a percentage degradation value of no less than 50%) | A (a percentage degradation value of no less than 50%)
O=C1CCC(N2Cc3c(cc(F)cc3C3CCN(CC4CCN(c5ccc([C@@H]6c7ccc(O)cc7CC[C@@H]6c6ccccc6)cc5)CC4)CC3)C2=O)C(=O)N1 (stereo partly drawn) [Compound A3, 3-(6-Fluoro-4-(1-((1-(4-((1R,2S)-6-hydroxy-2-phenyl-1,2,3,4-tetrahydro-naphthalen-1-yl)phenyl)piperidin-4-yl)methyl)piperidin-4-yl)-1-oxoisoindolin-2-yl)piperidine-2,6-dione] | 0.2 nM | 0.44 nM | D (a percentage degradation value of less than 10%) | D (a percentage degradation value of less than 10%) | D (a percentage degradation value of less than 10%)
O=C1CCC(N2Cc3c(cc(F)cc3C3CCN(CCCCCCOc4ccc([C@@H]5c6ccc(O)cc6CC[C@@H]5c5ccccc5)cc4)CC3)C2=O)C(=O)N1 (stereo partly drawn) [Compound A2, 3-(6-Fluoro-4-(1-(6-(4-((1R,2S)-6-hydroxy-2-phenyl-1,2,3,4-tetrahydro-naphthalen-1-yl)phenoxy)hexyl)piperidin-4-yl)-1-oxoisoindolin-2-yl)piperidine-2,6-dione] | 0.72 nM | 0.61 nM | D (a percentage degradation value of less than 10%) | D (a percentage degradation value of less than 10%) | D (a percentage degradation value of less than 10%)
O=C1CCC(N2Cc3cc(N4CCN(CC5CCN(c6ccc([C@@H]7c8ccc(O)cc8CC[C@@H]7c7ccccc7)cc6)CC5)CC4)ccc3C2=O)C(=O)N1 (stereo partly drawn) [Compound A14, 3-(5-(4-((1-(4-((1R,2S)-6-Hydroxy-2-phenyl-1,2,3,4-tetrahydronaphthalen-1-yl)-phenyl)piperidin-4-yl)methyl)piperazin-1-yl)-1-oxoisoindolin-2-yl)piperidine-2,6-dione] | 1.1 nM | 0.86 nM | A (a percentage degradation value of no less than 50%) | A (a percentage degradation value of no less than 50%) | A (a percentage degradation value of no less than 50%)
O=C1CCC(N2Cc3c(csc3C3CCN(CC4CCN(c5ccc([C@@H]6c7ccc(O)cc7CC[C@@H]6c6ccccc6)cc5)CC4)CC3)C2=O)C(=O)N1 (stereo partly drawn) [Compound A7, 3-(1-(1-((1-(4-((1R,2S)-6-hydroxy-2-phenyl-1,2,3,4-tetrahydronaphthalen-1-yl)phenyl)piperidin-4-yl)methyl)piperidin-4-yl)-4-oxo-4H-thieno[3,4-c]pyrrol-5(6H)-yl)-piperidine-2,6-dione] | 145 nM | 0.18 nM | D (a percentage degradation value of less than 10%) | D (a percentage degradation value of less than 10%) | D (a percentage degradation value of less than 10%)
O=C1CCC(N2Cc3cc(C4CCN(CCCCOc5ccc([C@@H]6c7ccc(O)cc7CC[C@@H]6c6ccccc6)cc5)CC4)c(F)cc3C2=O)C(=O)N1 (stereo partly drawn) [Compound A4, 3-(6-Fluoro-5-(1-(4-(4-((1R,2S)-6-hydroxy-2-phenyl-1,2,3,4-tetrahydro-naphthalen-1-yl)phenoxy)butyl)piperidin-4-yl)-1-oxoisoindolin-2-yl)piperidine-2,6-dione] | 0.06 nM | 0.08 nM | D (a percentage degradation value of less than 10%) | D (a percentage degradation value of less than 10%) | D (a percentage degradation value of less than 10%)
